According to patent US8828984B2, “Gold(III) complexes containing N-heterocyclic carbene ligand, synthesis, and their applications in cancer treatment and thiol detection” (University of Hong Kong, priority 2012, dated 2014):

What was measured:
[1] = test system: cervical epithelioid carcinoma (HeLa); test: MTT cytotoxicity assay, HeLa; type: cell-based, human; settings: dose required to inhibit 50% cellular growth for 72 h
Procedure: (§1) Example 2 describes the in vitro cytotoxicity, which is indicative of the induction of cell death and/or inhibition of cellular proliferation of cancer cells, of the Au(III)-NHC complexes on cervical epithelioid carcinoma, hepatocellular carcinoma, leukemia, nasopharyngeal carcinoma, breast carcinoma, melanoma, and lung carcinoma.
(§2) By means of MTT assays, the cytotoxic properties of 1-11 were determined toward some established human cancer cell lines including hepatocellular carcinoma (HepG2), cervical epithelioid carcinoma (HeLa), lung carcinoma (NCI-H460), breast cancer (MCF-7), melanoma (B 16) and nasopharyngeal carcinoma (SUNE1).

[2] = test system: hepatocellular carcinoma (HepG2); test: MTT cytotoxicity assay, HepG2; type: cell-based, human; settings: 72 h
Procedure: as §1, §2

[3] = test system: lung carcinoma (NCI-H460); test: MTT cytotoxicity assay, NCI-H460; type: cell-based, human; settings: 72 h
Procedure: as §1, §2

breast cancer (MCF-7) = test: MTT cytotoxicity assay, MCF-7; type: cell-based, human; settings: 72 h
Procedure: as §1, §2

[4] = test system: nasopharyngeal carcinoma (SUNE1); test: MTT cytotoxicity assay, SUNE1; type: cell-based, human; settings: 72 h
Procedure: as §1, §2

melanoma (B 16) = test: MTT cytotoxicity assay, B16; type: cell-based, mouse; settings: 72 h
Procedure: as §1, §2

[5] = test system: Thioredoxin reductase (TrxR); settings: HeLa cells incubated for 1 h; compared with auranofin
Procedure: Cell-based TrxR activity experiment was incorporated in our experiments. […] The cell lysates (10 μg proteins) were added to a buffer (100 μL) containing 100 mM potassium phosphate, pH 7.4, 1 mM EDTA and 0.2 mM NADPH. Reaction was initiated by adding 5,5′-dithiobis(2-nitrobenzoic acid) (DTNB, 3 mM final) and the TrxR activities were determined as increases in O.D. 410 nm in 10 min.

[6] = Preliminary toxicity experiment in mice; type: in vivo
HeLa xenograft = test: In vivo tumor inhibition, mice bearing HeLa xenograft; settings: 3 mg/kg, nude mice bearing HeLa xenograft
Procedure: Female BALB/cAnN-nu (Nude), 5-7 weeks old, were purchased from the Charles River Laboratories (Wilmington, Mass.) and cared for according to the guidelines of the Laboratory Animal Unit of the University of Hong Kong (HKU). All animal experiments were conducted under the guidelines approved by the Committee on the Use of Live Animals in Teaching and Research of HKU. To establish the HeLa xenograft model, 4×10^6 HeLa cells suspended in 100 μl of PBS were inoculated into the back flanks of female BALB/cAnN-nu (Nude) mice by subcutaneous injection. When the tumor volumes reached about 50 mm^3 (4 days after tumor inoculation), the mice were randomly divided into different treatment groups (3 mg/kg of 5 or solvent control). Complex 5 was reconstituted in PET diluent (60% polyethylene glycol 400, 30% ethanol, 10% Tween 80). Complex 5 dissolved in PET diluent and then diluted in PBS or PBS supplemented with equal amount of PET were injected into the mice by intratumoral injection once every three days until the mice were sacrificed. In this model, the volume of PET diluent injected into each mouse was ≦6 μl. Tumor sizes were measured once every 3 times a week, and tumor volume (V) was calculated by the formula V=ab^2×0.52, where a and b were the longest and the shortest diameters of the xenografted tumor. The tumor inhibition was calculated according to the following formula: Inhibition percentage=[1−(V−V0)/(V′−V0′)]×100% where V and V′ are the tumor volumes of 5 treatment and solvent control, respectively. V0 and V0′ are the initial tumor volumes of the 5 treatment and solvent control, respectively.

PARP, caspase 3, 7 and 9 = test: Western blotting of apoptosis related proteins in HeLa cells; type: cell-based, human; settings: 15 μM, 48 h
Procedure: Meanwhile, considerable attention has been paid on apoptosis for which can lead cancer cell death. After treating HeLa cells with 15 μM of complex 9 for 48 h, apoptosis related PARP, caspase 3, 7 and 9 were activated according to western blotting results (FIG. 4b).

HeLa cells = test: Fluorescence microscopic examination of HeLa cells; type: cell-based, human; settings: 20 μM, 10 min, ex 340 nm
Procedure: Fluorescence microscopic examination 9: HeLa cells (1×10^5 cells) were seeded in a one chamber slide (Nalgene; Nunc) with culture medium (2 mLwell^−1) and incubated at 37° C. in a humidified atmosphere of 5% CO2/95% air for 24 h. After treating with 9 (20 μM, 1 mL) for 10 min, cells were directly exposed for fluorescent imaging without removing the old medium. The bright-field and fluorescent images (ex: 340 nm) were examined in Axiovert 200 (Carl Zeiss) and in an Axio Vision Rel. 4.5 imaging system (Carl Zeiss).

Compound	IC50 [1]	IC50 [2]	IC50 [3]	IC50 (breast cancer (MCF-7))	IC50 [4]	IC50 (melanoma (B 16))	Inhibition of cell-based TrxR activity [5]	Toxicity to mice at 7 mg/kg (body weight) ([6]; 7 mg/kg)	Toxicity to mice at 20 mg/kg ([6]; 20 mg/kg)	Tumor inhibition after 11 days (HeLa xenograft; intratumoral injection once every three days, 11 days (p<0.05))	Tumor inhibition after 14 days (HeLa xenograft; intratumoral injection once every three days, 14 days (p<0.01))	Mouse death / mouse body weight loss during treatment (HeLa xenograft; intratumoral)	Activation of apoptosis related PARP, caspase 3, 7 and 9 (western blotting) (PARP, caspase 3, 7 and 9)	Cellular fluorescence (localisation) (HeLa cells)
Cn1cc[n+](C)[c]1[Au-]12[n]3ccnc3-c3cccc([n+]31)-c1ncc[n]12.O=S(=O)([O-])C(F)(F)F [Complex 1]	32.9 ± 1.3 µM	36.2 ± 2.2 µM	55 ± 8.5 µM	18.4 ± 0.3 µM	28.7 ± 7.3 µM	30.6 ± 0.3 µM	can inhibit cell-based TrxR activity similarly to auranofin							
CCCCCCCCn1cc[n+](C)[c]1[Au-]12[n]3ccnc3-c3cccc([n+]31)-c1ncc[n]12.O=S(=O)([O-])C(F)(F)F [Complex 3]	14 ± 0.3 µM	14.7 ± 1.5 µM	17.3 ± 0.3 µM	8.5 ± 0.2 µM	8.9 ± 0.6 µM	3.8 ± 0.1 µM								
CCCCCCCCCCn1cc[n+](C)[c]1[Au-]12[n]3ccnc3-c3cccc([n+]31)-c1ncc[n]12.O=S(=O)([O-])C(F)(F)F [Complex 4]	8.2 µM	11.8 ± 1.2 µM	9.7 ± 0.4 µM	6.5 ± 0.5 µM	5.5 ± 0.3 µM	1.6 ± 0.1 µM								
CCCCCCCCCCCCCCCCn1cc[n+](C)[c]1[Au-]12[n]3ccnc3-c3cccc([n+]31)-c1ncc[n]12.O=S(=O)([O-])C(F)(F)F [Complex 5]	1.4 ± 0.2 µM	3.3 ± 0.5 µM	1.4 ± 0.1 µM	2.9 ± 0.2 µM	28.6 ± 0.3 µM	2.2 ± 0.1 µM		slight drop of body weight	toxic to mice	up to 60%	≤ 76%	No mouse death or mouse body weight loss was found		
CCCCn1cc[n+](CCCC)[c]1[Au-]12[n]3ccnc3-c3cccc([n+]31)-c1ncc[n]12.O=S(=O)([O-])C(F)(F)F [Complex 6]	13 ± 1.6 µM	28.7 ± 5.9 µM	7.9 ± 1.1 µM	12.9 ± 2 µM	9.9 ± 0.2 µM	8.3 ± 0.2 µM								
CCCCCCn1cc[n+](CCCCCC)[c]1[Au-]12[n]3ccnc3-c3cccc([n+]31)-c1ncc[n]12.O=S(=O)([O-])C(F)(F)F [Complex 7]	8.2 µM	9.1 ± 0.3 µM	34.6 ± 3.1 µM	8.6 ± 0.1 µM	36.8 ± 1.6 µM	7.7 ± 1 µM								
C[n+]1ccn(CCC[P+](c2ccccc2)(c2ccccc2)c2ccccc2)[c]1[Au-]12[n]3ccnc3-c3cccc([n+]31)-c1ncc[n]12.O=S(=O)([O-])C(F)(F)F.O=S(=O)([O-])C(F)(F)F [Complex 8]	77.4 ± 1.8 µM		65.4 ± 1.1 µM	49.7 ± 3 µM	47.3 ± 6.2 µM	36.8 ± 0.9 µM								
Cn1cc[n+](C)[c]1[Au-]12[n]3c(nc4ccccc43)-c3cccc([n+]31)-c1nc3ccccc3[n]12.O=S(=O)([O-])C(F)(F)F [Complex 9]	14.4 µM	18 ± 0.5 µM	11.2 ± 0.7 µM	11.9 ± 1 µM	11.2 ± 0.6 µM	12.4 ± 0.1 µM	can inhibit cell-based TrxR activity similarly to auranofin						activated	significant blue fluorescence was detected in cytoplasm but not in nucleus or extracellular environment
CCCCn1cc[n+](CCCC)[c]1[Au-]12[n]3c(nc4ccccc43)-c3cccc([n+]31)-c1nc3ccccc3[n]12.O=S(=O)([O-])C(F)(F)F [Complex 10]	9.2 ± 0.4 µM	14.7 ± 1.1 µM	5.5 ± 0.3 µM	8.7 ± 0.2 µM	5.2 ± 1.6 µM	5.2 ± 0.2 µM								
CCCCCCn1cc[n+](CCCCCC)[c]1[Au-]12[n]3c(nc4ccccc43)-c3cccc([n+]31)-c1nc3ccccc3[n]12.O=S(=O)([O-])C(F)(F)F [Complex 11]	8.4 ± 0.1 µM	2.6 ± 0.4 µM	5 ± 0.1 µM	4 ± 0.1 µM	3.1 ± 0.3 µM	5.5 ± 0.1 µM								
